This passage reports IC50 results from patent EP4803513A1, “SUBSTITUTED QUINAZOLINE COMPOUND, PREPARATION METHOD THEREFOR, PHARMACEUTICAL COMBINATION THEREOF, AND USE THEREOF” (Hongyun Biotech Co., Ltd., priority 2023, dated 2025).

Each structure is given as a SMILES string.

The subject of one experiment is WT-BaF3 cells. The experiment is described as follows: Cell antiproliferative activity assay (CCK-8), WT-BaF3 (broad-spectrum cytotoxicity). The format is cell-based. The following applies: 72 h; WT-BaF3 cells (IL-3 supplemented), CCK-8, 3 days incubation. As for the experimental part:
The activity of compounds against BRK kinase can be evaluated by their inhibition of the growth of the BRK kinase-stably transfected BaF3 cell line (BRK-BaF3) and wild-type BaF3 cells (WT-BaF3). […] The larger the ratio of the half-maximal growth inhibitory concentration (IC50) of a compound between WT-BaF3 and BRK-BaF3 cells, the better the selectivity of the compound.
BRK-BaF3, WT-BaF3, WEHI cell line, and breast cancer cell line T47D were cultured using RPMI 1640 Basal medium or DMEM (Dulbecco's Modified Eagle Medium) (Shanghai Peiyuan Biotechnology, L220KJ), supplemented with 10% FBS (Gibco, REF 10099-141C) and 1% P/S (Shanghai Peiyuan Biotechnology, S110JV), in an incubator (Thermo 3020) at 37°C with 5% CO2. Cell viability was above 95%. Cells were passaged at a 3:1 ratio every 3-4 days. For WT-BaF3 cells, WEHI cells were first cultured, and their culture supernatant was filtered through a 0.22 µm filter. This supernatant was added at 10% to the regular culture medium to supplement IL-3 required for WT-BaF3 cell proliferation, which served as the culture medium for WT-BaF3. For testing, cells were first collected and counted, then prepared into a cell suspension at 100,000 cells/mL and plated at 100 µL per well. Drug concentrations started from 10 µM and were serially diluted 3:1. After incubation for 3 days, 20 µL of CCK-8 detection reagent (Targetmol C005) was added to each well. After incubation for 2-4 hours, OD450 was measured using a microplate reader (Varioskan LUX, Thermo Scientific). After subtracting the blank background, the curve was fitted and the IC50 was calculated using XLfit software.
In general, IC50 refers to the concentration that inhibits the measured activity by half. Lower therefore signals greater potency. The compound `Cc1cc(P(C)(C)=O)ncc1Nc1ncc2cc(-c3nccnc3C)cc(C(C)C)c2n1` [II-4] displayed an IC50 of more than 2500 nM.

Compound `COc1cc(P(C)(C)=O)ncc1Nc1ncc2cc(-c3nccnc3C)cc(C(C)C)c2n1` [II-5] gave an IC50 of more than 2500 nM.

`Cc1cc(Nc2ncc3cc(-c4nccnc4C)cc(C(C)C)c3n2)cnc1P(C)(C)=O` [II-6] registered an IC50 of more than 2500 nM.

`COc1cc(Nc2ncc3cc(-c4nccnc4C)cc(C(C)C)c3n2)cnc1P(C)(C)=O` [II-7] returned an IC50 of 500 to 2500 nM.

`Cc1nccnc1-c1cc(C(C)C)c2nc(Nc3ccc(P(C)(C)=O)cn3)ncc2c1` [II-8] showed an IC50 of more than 2500 nM.

On to `Cc1cc(Nc2ncc3cc(-c4nccnc4C)cc(C(C)C)c3n2)ncc1P(C)(C)=O` [II-9], for which the IC50 was more than 2500 nM.

In the case of `Cc1nc(Nc2ncc3cc(-c4nccnc4C)cc(C(C)C)c3n2)ccc1P(C)(C)=O` [II-10], the IC50 is more than 2500 nM.

As for `Cc1cc(P(C)(C)=O)ccc1Nc1ncc2cc(-c3nccnc3C)cc(C(C)C)c2n1` [II-13], the IC50 is more than 2500 nM.

Compound `COc1cc(P(C)(C)=O)ccc1Nc1ncc2cc(-c3nccnc3C)cc(C(C)C)c2n1` [II-14] gave an IC50 of more than 2500 nM.

The compound `CCc1cc(P(C)(C)=O)ccc1Nc1ncc2cc(-c3nccnc3C)cc(C(C)C)c2n1` [II-15] registered an IC50 of more than 2500 nM.

In turn, `Cc1nccnc1-c1cc(C(C)C)c2nc(Nc3ccc(P(C)(C)=O)c(Cl)c3F)ncc2c1` [II-17] gave an IC50 of 500 to 2500 nM.

The compound `Cc1cc(Nc2ncc3cc(-c4nccnc4C)cc(C(C)C)c3n2)c(F)cc1P(C)(C)=O` [II-21] registered a half-inhibitory concentration (IC50) of 500 to 2500 nM.

As to `Cc1nccnc1-c1cc(C2CC2)c2nc(Nc3ccc(P(C)(C)=O)cc3)ncc2c1` [II-30], the IC50 lay within 500 to 2500 nM.

On to `Cc1nccnc1-c1cc(C2CC2)c2nc(Nc3ccc(P(C)(C)=O)cc3F)ncc2c1` [II-31], for which the IC50 was more than 2500 nM.

`COc1nc(P(C)(C)=O)ccc1Nc1ncc2cc(-c3nccnc3C)cc(C3CC3)c2n1` [II-32] had an IC50 of 500 to 2500 nM.

As for `Cc1nccnc1-c1cc(C(F)(F)F)c2nc(Nc3ccc(P(C)(C)=O)cc3)ncc2c1` [II-34], the IC50 was more than 2500 nM.

On to `Cc1nccnc1-c1cc(C(F)(F)F)c2nc(Nc3ccc(P(C)(C)=O)cc3F)ncc2c1` [II-35], for which the IC50 is more than 2500 nM.

`Cc1ncnc(C)c1-c1cc(C(C)C)c2nc(Nc3ccc(P(C)(C)=O)nc3)ncc2c1` [II-42] came in with an IC50 of more than 2500 nM.

Compound `Cc1cc(P(C)(C)=O)ncc1Nc1ncc2cc(-c3c(C)ncnc3C)cc(C(C)C)c2n1` [II-43] came in with an IC50 of more than 2500 nM.

Take `COc1cc(P(C)(C)=O)ncc1Nc1ncc2cc(-c3c(C)ncnc3C)cc(C(C)C)c2n1` [II-44]: the IC50 is more than 2500 nM.

Compound `Cc1cc(Nc2ncc3cc(-c4c(C)ncnc4C)cc(C(C)C)c3n2)cnc1P(C)(C)=O` [II-45] had an IC50 of more than 2500 nM.

`Cc1ncnc(C)c1-c1cc(C(C)C)c2nc(Nc3ccc(P(C)(C)=O)cc3)ncc2c1` [II-50] displayed an IC50 of more than 2500 nM.

`COc1cc(P(C)(C)=O)ccc1Nc1ncc2cc(-c3c(C)ncnc3C)cc(C(C)C)c2n1` [II-53] displayed an IC50 of more than 2500 nM.

As to `COc1cc(Nc2ncc3cc(-c4c(C)ncnc4C)cc(C(C)C)c3n2)ccc1P(C)(C)=O` [II-54], the IC50 was more than 2500 nM.

`Cc1ncnc(C)c1-c1cc(C(C)C)c2nc(Nc3ccc(P(C)(C)=O)c(C)c3F)ncc2c1` [II-56] yielded an IC50 of more than 2500 nM.

The subject of another experiment is BRK-BaF3 cells. As to the kind of experiment: Cell antiproliferative activity assay (CCK-8), BRK-BaF3. Particulars: 72 h, CCK-8, 3 days incubation. The format is cell-based. Put shortly:
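Growth inhibition over 3 days, with compound serially diluted 3-fold from a 10 µM top concentration. Cells seeded at 100,000 cells/mL; WT-BaF3 medium carried 10% WEHI supernatant as the IL-3 source. Viability read by CCK-8 OD450 after 2-4 h; IC50 from blank-subtracted curve fit.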
Regarding `Cc1cc(P(C)(C)=O)ncc1Nc1ncc2cc(-c3nccnc3C)cc(C(C)C)c2n1` [II-4], the 50% inhibitory concentration (IC50) lay in the range of 20 to 100 nM.

As for `COc1cc(P(C)(C)=O)ncc1Nc1ncc2cc(-c3nccnc3C)cc(C(C)C)c2n1` [II-5], the IC50 is not above 20 nM.

In the case of `Cc1cc(Nc2ncc3cc(-c4nccnc4C)cc(C(C)C)c3n2)cnc1P(C)(C)=O` [II-6], the half-maximal inhibitory concentration (IC50) is not above 20 nM.

`COc1cc(Nc2ncc3cc(-c4nccnc4C)cc(C(C)C)c3n2)cnc1P(C)(C)=O` [II-7] displayed an IC50 of 20 to 100 nM.

For `Cc1nccnc1-c1cc(C(C)C)c2nc(Nc3ccc(P(C)(C)=O)cn3)ncc2c1` [II-8], the IC50 is 20 to 100 nM.

`Cc1cc(Nc2ncc3cc(-c4nccnc4C)cc(C(C)C)c3n2)ncc1P(C)(C)=O` [II-9] showed an IC50 of 20 to 100 nM.

In turn, `Cc1nc(Nc2ncc3cc(-c4nccnc4C)cc(C(C)C)c3n2)ccc1P(C)(C)=O` [II-10] returned an IC50 of 20 to 100 nM.

Compound `Cc1cc(P(C)(C)=O)ccc1Nc1ncc2cc(-c3nccnc3C)cc(C(C)C)c2n1` [II-13] registered an IC50 of 20 to 100 nM.

For `COc1cc(P(C)(C)=O)ccc1Nc1ncc2cc(-c3nccnc3C)cc(C(C)C)c2n1` [II-14], the IC50 was not above 20 nM.

Take `CCc1cc(P(C)(C)=O)ccc1Nc1ncc2cc(-c3nccnc3C)cc(C(C)C)c2n1` [II-15]: the IC50 was not above 20 nM.

Compound `Cc1nccnc1-c1cc(C(C)C)c2nc(Nc3ccc(P(C)(C)=O)c(Cl)c3F)ncc2c1` [II-17] gave an IC50 not above 20 nM.

Turning to `Cc1cc(Nc2ncc3cc(-c4nccnc4C)cc(C(C)C)c3n2)c(F)cc1P(C)(C)=O` [II-21], the half-maximal inhibitory concentration (IC50) is not above 20 nM.

Take `Cc1nccnc1-c1cc(C2CC2)c2nc(Nc3ccc(P(C)(C)=O)cc3)ncc2c1` [II-30]: the IC50 was not above 20 nM.

For `Cc1nccnc1-c1cc(C2CC2)c2nc(Nc3ccc(P(C)(C)=O)cc3F)ncc2c1` [II-31], the IC50 was not above 20 nM.

`COc1nc(P(C)(C)=O)ccc1Nc1ncc2cc(-c3nccnc3C)cc(C3CC3)c2n1` [II-32] had an IC50 not above 20 nM.

Compound `Cc1nccnc1-c1cc(C(F)(F)F)c2nc(Nc3ccc(P(C)(C)=O)cc3)ncc2c1` [II-34] displayed an IC50 not above 20 nM.

The compound `Cc1nccnc1-c1cc(C(F)(F)F)c2nc(Nc3ccc(P(C)(C)=O)cc3F)ncc2c1` [II-35] gave an IC50 of 20 to 100 nM.

`Cc1ncnc(C)c1-c1cc(C(C)C)c2nc(Nc3ccc(P(C)(C)=O)nc3)ncc2c1` [II-42] displayed an IC50 of 20 to 100 nM.

The compound `Cc1cc(P(C)(C)=O)ncc1Nc1ncc2cc(-c3c(C)ncnc3C)cc(C(C)C)c2n1` [II-43] had an IC50 of 20 to 100 nM.

Take `COc1cc(P(C)(C)=O)ncc1Nc1ncc2cc(-c3c(C)ncnc3C)cc(C(C)C)c2n1` [II-44]: the IC50 is 20 to 100 nM.

`Cc1cc(Nc2ncc3cc(-c4c(C)ncnc4C)cc(C(C)C)c3n2)cnc1P(C)(C)=O` [II-45] gave an IC50 not above 20 nM.

Compound `Cc1ncnc(C)c1-c1cc(C(C)C)c2nc(Nc3ccc(P(C)(C)=O)cc3)ncc2c1` [II-50] registered an IC50 of 20 to 100 nM.

Consider `COc1cc(P(C)(C)=O)ccc1Nc1ncc2cc(-c3c(C)ncnc3C)cc(C(C)C)c2n1` [II-53], for which the IC50 was in the range of 20 to 100 nM.

As for `COc1cc(Nc2ncc3cc(-c4c(C)ncnc4C)cc(C(C)C)c3n2)ccc1P(C)(C)=O` [II-54], the IC50 was not above 20 nM.

With `Cc1ncnc(C)c1-c1cc(C(C)C)c2nc(Nc3ccc(P(C)(C)=O)c(C)c3F)ncc2c1` [II-56], the IC50 was not above 20 nM.
